# Assays:
# [1] = system: fMLP-stimulated granulocytes; assay: Suppression of fMLP-induced LTB4 generation by granulocytes from subjects with AERD; format: cell-based, human; details: pretreatment of granulocytes from subjects with AERD; FIG. 12B-12C
# Description: FIG. 12A depicts a graph of percentages of platelet-adherent neutrophils (determined by CD61^+ expression) in whole blood from eight subjects with AERD plotted against quantity of LTB4 generated by fMLP-stimulated granulocytes from the same individuals. Percent suppression of fMLP-induced LTB4 by pretreatment with (FIG. 12B) PGE2 or (FIG. 12C) the EP2 receptor-specific agonist was plotted against percentages of platelet-adherent neutrophils in the peripheral blood of each subject. Effect size, determined with Pearson correlation coefficient, is denoted as an r value.
# Platelet-rich plasma was removed from whole peripheral blood by centrifugation, washed, and resuspended at a concentration of 1×10^9 platelets/mL. […] Granulocytes were counted and a portion was stripped of adherent platelets by incubation with 0.05% trypsinethylenediaminetetraacetic acid for 15 minutes at 37° C.^17 Removal of adherent platelets was confirmed by cytofluorographic analysis of samples of the granulocytes before and after trypsinization. […]
# The percentage of platelet-adherent neutrophils (as determined by CD61+ expression) in the whole blood of subjects with AERD was positively correlated with the amount of LTB4 generated by fMPL-stimulation of granulocytes from the same subjects (FIG. 12A). […]
# human platelets = details: exogenous cysLTs; inventors' previous work (ref 49); cited from earlier work
# mice = details: pathway depends on platelet associated P2Y12 receptors (ref 49); cited from earlier work
# [2] = extracellular milieu (ref 43); cited from earlier work
smiles,measurement,setting,value
CCCCC[C@H](O)/C=C/[C@H]1[C@H](O)CC(=O)[C@@H]1C/C=C\CCCC(=O)O [PGE2],suppression of leukotriene production (fMLP-induced LTB4),[1],able to suppress leukotriene production
CCCCC/C=C\C\C=C/C=C/C=C/[C@@H](SC[C@H](N)C(=O)O)[C@@H](O)CCCC(=O)O [LTE4],adherence of platelets to granulocytes,human platelets,do not directly cause human platelets to adhere to granulocytes
same,pulmonary eosinophilia,mice,markedly potentiates pulmonary eosinophilia
"CCCCC/C=C\C\C=C/C=C/C=C/[C@@H]1O[C@H]1CCCC(=O)O [LTA4, leukotriene (LT)A4]",extracellular half-life,[2],less than 5 seconds

# — patent US20150253327A1, “DIAGNOSIS AND TREATMENT OF ASPIRIN-EXACERBATED RESPIRATORY DISEASE (AERD)” (BRIGHAM AND WOMEN'S HOSPITAL, INC., priority 2012, published 2015)
